# In patent US20130183706A1, “Method for Culturing Adipocytes” (ASSISTANCE PUBLIQUE-HOPITAUX DE PARIS, priority 2010, published 2013):
# System: Akt phosphorylation in mature adipocytes
# Test: Measurement of insulin sensitivity (Ser473 Akt phosphorylation, immunoelectrophoresis)
# Type: cell-based, human
# Conditions: insulin 10 nM, 15 to 30 minutes; freshly isolated adipocytes (2D) and adipocytes kept 48 h in hydrogel (3D)
# Procedure: The mature adipocytes are isolated by collagenase treatment of human adipose tissue. The subcutaneous human adipose tissue of young women (<45 years) who are not obese (BMI<30) is cut up in digestion medium (DMEM, 2% essentially fatty acid free albumin (A6003, Sigma, St Louis, […]., USA), 1 mg/ml collagenase A (Roche Diagnostics, Mannheim, Germany)) in the proportion of 1 g of tissue per 2 ml of digestion medium in polypropylene tubes. The tubes are placed at 37° C. for […] with agitation (200 cycles/minute). After digestion, the medium is filtered through woven cotton gauze. The mature adipocytes are left to decant by floating for 5 minutes and are then washed 3 times with 5 volumes of 10% sucrose. At the end of the final wash, the sucrose is removed and the mature adipocytes are ready to be incorporated into the PuraMatrix™ hydrogel.
# The wells containing the hydrogel/adipocytes deprived of insulin the day before are incubated with the incubation medium (150 μl) (DMEM/F12 and 10 nM insulin). The plates are then placed in the incubator for 15 to 30 minutes. […] The signals are detected by chemiluminescence (Detection ECL, GE Healthcare) and quantified by densitometry.
substance,measurement,value
Insulin: major anabolic hormone,Akt phosphorylation (Ser473),stimulates
